Results on two molecules are retold here after patent publication US7531555B2, “Compositions and methods for selective inhibition of nicotine acetylcholine receptors” (University of Florida Research Foundation, Inc., priority 2003, dated 2009).

For assay [1], the system named is mice. As to the kind of experiment: Locomotor activity, nicotine-induced hypomotility. Format: in vivo. Particulars: Saline/Nicotine (1.5 mg/kg), s.c. Here is the method: Animals. Male ICR mice (20-25 g) obtained from Harlan Laboratories (Indianapolis, Ind.) were used throughout the study. Animals were housed in groups of six and had free access to food and water. Adult, male Long-Evans rats (350-460 g), obtained from Harlan (Dublin, Va.), were individually housed in a temperature-controlled (20-22° C.) environment with a 12-hour light-dark cycle (lights on at 7 a.m.). Rats were maintained within the indicated weight range by restricted post-session feeding and had ad libitum water in their home cages. Rats were drug-naive at the beginning of the study. Animals were housed in an AALAC approved facility and the study was approved by the Institutional Animal Care and Use Committee of Virginia Commonwealth University.
Locomotor activity. Mice were placed into individual Omnitech photocell activity cages (28×16.5 cm) immediately after s.c. administration of either 0.9% saline or nicotine (6.2 μmol/kg or 1 mg/kg) and were allowed to acclimate for 10 minutes. Interruptions of the photocell beams (two banks of eight cells each) were then recorded for the next 10 minutes. Data were expressed as percentage of depression where % depression=[1−(counts from nicotine-treated animals/counts from vehicle-treated animals)]×100. Mice were pretreated s.c. with either saline or TMPH 10 minutes before nicotine.
Eight to twelve mice were tested in each treatment group and each animal was tested only once.
Statistical analysis. Statistical analysis of all analgesic and in vivo studies was performed using either t-test or analysis of variance (ANOVA) with Tukey's test post hoc test when appropriate. All differences were considered significant at p<0.05. AD50 values with 95% CL for behavioral data were calculated by unweighted least-squares linear regression as described by Tallarida and Murray (Tallarida and Murray Manual of Pharmacological Calculations with Computer Programs. 1987, Springer-Verlag, New York).

Assay [2] concerns mice. Nature of the assay: Body temperature, nicotine-induced hypothermia. Format: in vivo. The conditions noted are these: Saline/Nicotine (1.5 mg/kg), s.c. Here is the method: Animals. Male ICR mice (20-25 g) obtained from Harlan Laboratories (Indianapolis, Ind.) were used throughout the study. Animals were housed in groups of six and had free access to food and water. Adult, male Long-Evans rats (350-460 g), obtained from Harlan (Dublin, Va.), were individually housed in a temperature-controlled (20-22° C.) environment with a 12-hour light-dark cycle (lights on at 7 a.m.). Rats were maintained within the indicated weight range by restricted post-session feeding and had ad libitum water in their home cages. Rats were drug-naive at the beginning of the study. Animals were housed in an AALAC approved facility and the study was approved by the Institutional Animal Care and Use Committee of Virginia Commonwealth University. Body temperature. Rectal temperature was determined by a thermistor probe (inserted 24 mm) and digital thermometer (Yellow Springs Instrument Co., Yellow Springs, Ohio). […] The difference in rectal temperature before and after treatment was calculated for each mouse. The ambient temperature of the laboratory varied from 21-24° C. from day to day. […] Psychopharmacology (Berl), 1995, 117:67-73). Eight to twelve mice were tested in each treatment group and each animal was tested only once. Statistical analysis. Statistical analysis of all analgesic and in vivo studies was performed using either t-test or analysis of variance (ANOVA) with Tukey's test post hoc test when appropriate.

In a further assay the target is T1, Rat α4β2 (Rattus norvegicus, UniProt P09483+P12390).
T1 construct: expressed in transfected cells; host or cells: Xenopus laevis oocytes injected with subunit cRNAs; clones from Dr. Jim Boulter (UCLA)
The conditions noted are these: mecamylamine, comparison value in discussion; read-out: IC50 (peak), expressed α4β2 subtypes; cited from earlier work.

A word on the IC50: it is the concentration at which inhibition is half-maximal.

T1 sequence (P09483 31-630): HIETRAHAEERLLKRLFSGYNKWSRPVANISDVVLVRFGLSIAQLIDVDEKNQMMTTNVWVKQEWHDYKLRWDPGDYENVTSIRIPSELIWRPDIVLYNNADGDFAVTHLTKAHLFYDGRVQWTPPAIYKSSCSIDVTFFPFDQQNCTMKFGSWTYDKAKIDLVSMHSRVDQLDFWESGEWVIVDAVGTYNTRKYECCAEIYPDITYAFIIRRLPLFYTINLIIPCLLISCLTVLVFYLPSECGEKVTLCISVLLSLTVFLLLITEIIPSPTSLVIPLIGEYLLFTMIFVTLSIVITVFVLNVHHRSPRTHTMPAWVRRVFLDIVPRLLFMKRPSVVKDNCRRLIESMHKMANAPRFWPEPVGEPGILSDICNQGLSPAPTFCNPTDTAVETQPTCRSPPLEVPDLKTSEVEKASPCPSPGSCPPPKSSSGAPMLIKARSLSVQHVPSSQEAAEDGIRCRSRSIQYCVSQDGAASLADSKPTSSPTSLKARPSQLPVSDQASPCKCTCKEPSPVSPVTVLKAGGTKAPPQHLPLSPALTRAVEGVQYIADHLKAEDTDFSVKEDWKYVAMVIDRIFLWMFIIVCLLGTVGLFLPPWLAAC
T1 sequence (P12390 25-500): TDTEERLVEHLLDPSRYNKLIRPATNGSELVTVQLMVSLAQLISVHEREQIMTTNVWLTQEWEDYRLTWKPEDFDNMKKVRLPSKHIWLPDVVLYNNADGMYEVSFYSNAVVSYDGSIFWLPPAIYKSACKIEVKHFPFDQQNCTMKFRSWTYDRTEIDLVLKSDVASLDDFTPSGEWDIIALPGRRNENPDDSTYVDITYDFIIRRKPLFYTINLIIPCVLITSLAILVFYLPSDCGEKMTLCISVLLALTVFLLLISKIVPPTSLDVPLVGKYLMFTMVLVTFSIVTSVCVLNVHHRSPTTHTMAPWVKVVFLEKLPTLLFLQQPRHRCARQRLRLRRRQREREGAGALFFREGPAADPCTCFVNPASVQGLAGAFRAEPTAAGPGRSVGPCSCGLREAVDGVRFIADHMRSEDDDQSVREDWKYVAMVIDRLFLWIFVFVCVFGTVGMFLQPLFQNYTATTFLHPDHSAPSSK

On to `CN1CCCC1c1cccnc1` (single isomer, unassigned; (-)) [Nicotine, (−)-Nicotine], for which the “Locomotor Activity # Interrupts (Mean ± SEM)” value in the assay on mice [1] was 358 ± 92 # Interrupts. Also, the “Body temperature Δ° C. (Mean ± SEM)” value in the assay on mice [2] is −5.0 ± 0.3 °C.
For the molecule `CNC1(C)C2CCC(C2)C1(C)C` (stereo not drawn) [Mecamylamine], at Rat α4β2, the IC50 was 2500 nM.
